# Measured values as given in ChEMBL document CHEMBL3885861, “Open TG-GATES”.
# Species on record: Rattus norvegicus
# Experiment: Open TG-GATES - Regimen: Daily Repeat
# Format: toxicity, organism-based, Sprague-Dawley
# Design: regimen Daily Repeat, gender Male, age 6 weeks
# Settings: in vivo, po, 0 mg/kg, route gavage, dose level Control; for APTT / Bas / Eos / Fbg / Hb / Ht / Lym / MCH / MCHC / MCV / Mono / Neu / PT / Plat / RBC / Ret / WBC: tissue Blood
# [1] = 72 h, tissue Kidney, time 3 day
# [2] = 72 h, tissue Plasma, time 3 day
smiles,measurement,setting,value
CC(C)NNC(=O)c1ccncc1 [IPRONIAZID],TERMINAL_BW,"72 h, time 3 day",213.5 g
same,APTT,"72 h, time 3 day",21.8 s
same,Bas,"72 h, time 3 day",0%
same,Eos,"72 h, time 3 day",1%
same,Fbg,"72 h, time 3 day",301.6 mg/dL
same,Hb,"72 h, time 3 day",13.2 g/dL
same,Ht,"72 h, time 3 day",38.2%
same,Lym,"72 h, time 3 day",78.8%
same,MCH,"72 h, time 3 day",21.2 pg
same,MCHC,"72 h, time 3 day",34.5%
same,MCV,"72 h, time 3 day",61.3 fL
same,Mono,"72 h, time 3 day",2.8%
same,Neu,"72 h, time 3 day",16.4%
same,PT,"72 h, time 3 day",16 s
same,Plat,"72 h, time 3 day",127.9 x10_4/uL
same,RBC,"72 h, time 3 day",622.8 x10_4/ul
same,Ret,"72 h, time 3 day",7.5%
same,WBC,"72 h, time 3 day",99.6 x10_2/uL
same,KIDNEY_L,[1],1 g
same,KIDNEY_R,[1],1 g
same,KIDNEY_TOTAL,[1],1.9 g
same,LIVER,"72 h, tissue Liver, time 3 day",10.5 g
same,A/G,[2],1.3
same,ALP,[2],1294.6 IU/L
same,ALT,[2],41 IU/L
same,AST,[2],70.2 IU/L
same,BUN,[2],18 mg/dL
same,CRE,[2],0.2 mg/dL
same,Ca,[2],10.8 mg/dL
same,Cl,[2],106.6 meq/L
same,DBIL,[2],0 mg/dL
same,GLC,[2],188.8 mg/dL
same,IP,[2],7.2 mg/dL
same,K,[2],4.6 meq/L
same,LDH,[2],261.8 IU/L
same,Na,[2],141.8 meq/L
same,PL,[2],159.6 mg/dL
same,RALB,[2],3.1 g/dL
same,TBIL,[2],0.004 mg/dL
same,TC,[2],83.8 mg/dL
same,TG,[2],100.4 mg/dL
same,TP,[2],5.5 g/dL
same,gamma-GTP,[2],1 IU/L
same,TERMINAL_BW,"[…], time 7 day",239.8 g
same,TERMINAL_BW,"[…], time 14 day",277.2 g
same,TERMINAL_BW,"[…], time 28 day",363.7 g
same,APTT,"[…], time 7 day",22.5 s
same,Bas,"[…], time 7 day",0%
same,Eos,"[…], time 7 day",0.8%
same,Fbg,"[…], time 7 day",304.6 mg/dL
same,Hb,"[…], time 7 day",13.5 g/dL
same,Ht,"[…], time 7 day",37.7%
same,Lym,"[…], time 7 day",82.4%
same,MCH,"[…], time 7 day",21 pg
same,MCHC,"[…], time 7 day",35.7%
same,MCV,"[…], time 7 day",58.6 fL
same,Mono,"[…], time 7 day",2.2%
same,Neu,"[…], time 7 day",13.8%
same,PT,"[…], time 7 day",15.4 s
same,Plat,"[…], time 7 day",110.1 x10_4/uL
same,RBC,"[…], time 7 day",642.8 x10_4/ul
same,Ret,"[…], time 7 day",6.4%
same,WBC,"[…], time 7 day",110.4 x10_2/uL
same,APTT,"[…], time 14 day",22.8 s
same,Bas,"[…], time 14 day",0%
same,Eos,"[…], time 14 day",1%
same,Fbg,"[…], time 14 day",301.2 mg/dL
same,Hb,"[…], time 14 day",13.6 g/dL
same,Ht,"[…], time 14 day",39.5%
same,Lym,"[…], time 14 day",82.8%
same,MCH,"[…], time 14 day",20 pg
same,MCHC,"[…], time 14 day",34.4%
same,MCV,"[…], time 14 day",58.1 fL
same,Mono,"[…], time 14 day",2.4%
same,Neu,"[…], time 14 day",13.4%
same,PT,"[…], time 14 day",16 s
same,Plat,"[…], time 14 day",110.6 x10_4/uL
same,RBC,"[…], time 14 day",679.4 x10_4/ul
same,Ret,"[…], time 14 day",5.1%
same,WBC,"[…], time 14 day",106.6 x10_2/uL
same,APTT,"[…], time 28 day",25.2 s
same,Bas,"[…], time 28 day",0%
same,Eos,"[…], time 28 day",0.8%
same,Fbg,"[…], time 28 day",318.6 mg/dL
same,Hb,"[…], time 28 day",14.5 g/dL
same,Ht,"[…], time 28 day",40.9%
